Test results published in the supplement of paper PMC10307832.

Columns and labels:
Assay in all cases: relative viability (nuclei count vs DMSO), 5 days (fraction); higher = more cells survive
Pazopanib + Lapatinib = compound: Cc1ccc(Nc2nccc(N(C)c3ccc4c(C)n(C)nc4c3)n2)cc1S(N)(=O)=O [Pazopanib] + CS(=O)(=O)CCNCc1ccc(-c2ccc3ncnc(Nc4ccc(OCc5cccc(F)c5)c(Cl)c4)c3c2)o1 [Lapatinib] (partner 2 µM)
In short: (§1)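 Lung cancer cell lines were pin-tool dosed in 1536-well plates on the day after seeding, with either a lone drug or a fixed anchor-drug dose plus five library-drug doses (not always all listed) in √10 steps. Nuclei were counted on 4× images after 5 days. Relative viability is the ratio of treated-well to vehicle-well nuclei counts, with each value a median of duplicate plates.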

Ponatinib + Tozasertib = compound: Cc1ccc(C(=O)Nc2ccc(CN3CCN(C)CC3)c(C(F)(F)F)c2)cc1C#Cc1cnc2cccnn12 [Ponatinib] + Cc1cc(Nc2cc(N3CCN(C)CC3)nc(Sc3ccc(NC(=O)C4CC4)cc3)n2)n[nH]1 [Tozasertib] (partner 0.1 µM)
In short: as §1

Ponatinib + Phenformin = compound: Cc1ccc(C(=O)Nc2ccc(CN3CCN(C)CC3)c(C(F)(F)F)c2)cc1C#Cc1cnc2cccnn12 [Ponatinib] + N=C(N)NC(=N)NCCc1ccccc1 [Phenformin] (partner 250 µM)
In short: as §1

Pazopanib + Bortezomib = compound: Cc1ccc(Nc2nccc(N(C)c3ccc4c(C)n(C)nc4c3)n2)cc1S(N)(=O)=O [Pazopanib] + CC(C)C[C@H](NC(=O)[C@H](Cc1ccccc1)NC(=O)c1cnccn1)B(O)O [Bortezomib] (partner 0.002 µM)
In short: as §1

| Cell Line | relative viability (Pazopanib + Lapatinib; first compound 0.01 µM) | relative viability (Pazopanib + Lapatinib; first compound 0.03162 µM) | relative viability (Pazopanib + Lapatinib; first compound 0.1 µM) | relative viability (Pazopanib + Lapatinib; first compound 0.3162 µM) | relative viability (Pazopanib + Lapatinib; first compound 1 µM) | relative viability (Ponatinib + Tozasertib; first compound 0.002 µM) | relative viability (Ponatinib + Tozasertib; first compound 0.006325 µM) | relative viability (Ponatinib + Tozasertib; first compound 0.06325 µM) | relative viability (Ponatinib + Tozasertib; first compound 0.2 µM) | relative viability (Ponatinib + Phenformin; first compound 0.002 µM) | relative viability (Ponatinib + Phenformin; first compound 0.006325 µM) | relative viability (Ponatinib + Phenformin; first compound 0.06325 µM) | relative viability (Ponatinib + Phenformin; first compound 0.2 µM) | relative viability (Pazopanib + Bortezomib; first compound 0.01 µM) | relative viability (Pazopanib + Bortezomib; first compound 0.03162 µM) | relative viability (Pazopanib + Bortezomib; first compound 0.1 µM) | relative viability (Pazopanib + Bortezomib; first compound 0.3162 µM) | relative viability (Pazopanib + Bortezomib; first compound 1 µM) |
| --- | --- | --- | --- | --- | --- | --- | --- | --- | --- | --- | --- | --- | --- | --- | --- | --- | --- | --- |
| HCC-15 | 0.841 | 0.789 | 0.907 | 0.89 | 1 | 0.401 | 0.479 | 0.432 | 0.328 | 0.445 | 0.494 | 0.547 | 0.467 | 1.05 | 1.18 | 1.04 | 0.976 | 1.05 |
| HCC-44 | 0.999 | 1.01 | 0.962 | 1.01 | 1.03 | 0.946 | 0.882 | 0.87 | 0.595 | 0.22 | 0.225 | 0.207 | 0.151 | 0.942 | 0.877 | 0.891 | 0.899 | 0.989 |
| HCC-78 | 0.361 | 0.658 | 0.458 | 0.622 | 0.924 | 0.385 | 0.511 | 0.404 | 0.33 | 0.601 | 0.614 | 0.673 | 0.669 | 0.408 | 0.453 | 0.498 | 0.414 | 0.619 |
| IA-LM | 0.703 | – | 0.944 | 0.809 | 0.52 | – | – | – | – | – | – | – | – | 0.889 | 1.05 | 0.77 | 0.797 | 0.597 |
| LCLC-103H | – | – | – | – | – | 0.527 | 0.534 | 0.522 | 0.404 | 0.275 | 0.347 | 0.312 | 0.295 | 0.942 | 0.869 | 1.11 | 1.04 | 1.24 |
| LK-2 | 0.764 | 0.804 | 0.959 | 1 | 0.952 | – | 0.174 | 0.188 | 0.209 | – | 0.52 | 0.239 | 0.21 | – | – | – | – | – |
| NCI-H358 | 0.482 | 0.53 | 0.356 | 0.442 | 0.489 | 0.0953 | 0.101 | 0.0969 | 0.165 | 0.375 | 0.46 | 0.4 | 0.299 | – | – | – | – | – |
| NCI-H441 | – | – | – | – | – | 0.602 | 0.529 | 0.588 | 0.488 | 0.818 | 0.866 | 0.941 | 0.697 | 0.377 | 0.384 | 0.665 | 0.324 | 0.434 |
| NCI-H522 | – | – | – | – | – | 0.51 | 0.543 | 0.476 | 0.455 | 0.697 | 0.657 | 0.653 | 0.56 | – | – | – | – | – |
| NCI-H1299 | 0.928 | 0.962 | 0.969 | 1.02 | 0.894 | – | – | – | – | – | – | – | – | 0.998 | 0.987 | 1.05 | 1.03 | 1.02 |
| NCI-H1395 | 0.788 | 1.27 | 0.981 | 1.05 | 1.1 | 0.636 | 0.747 | 0.768 | 0.701 | 0.417 | 0.432 | 0.386 | 0.377 | – | – | – | – | – |
| NCI-H1563 | 0.75 | 1 | 0.997 | 1.09 | 1.16 | – | – | – | – | 0.587 | 0.649 | 0.655 | 0.525 | 0.788 | 0.873 | 0.947 | 0.913 | 0.985 |
| NCI-H1623 | – | – | – | – | – | 0.429 | 0.426 | 0.453 | 0.419 | 0.567 | 0.606 | 0.611 | 0.627 | – | – | – | – | – |
| NCI-H1648 | – | – | – | – | – | 0.464 | 0.361 | 0.577 | 0.283 | – | – | – | – | – | – | – | – | – |
| NCI-H1703 | 1.09 | 0.629 | 0.41 | 0.354 | 0.286 | – | – | – | – | – | – | – | – | 0.26 | 0.262 | 0.233 | 0.267 | 0.214 |
| NCI-H1792 | – | 0.863 | 0.918 | 0.847 | 0.823 | – | – | – | – | 0.268 | 0.22 | 0.354 | 0.205 | – | 0.958 | 0.916 | 0.949 | 0.935 |
| NCI-H1793 | – | 0.705 | 0.525 | 0.755 | 0.852 | 0.357 | 0.388 | 0.29 | 0.204 | 0.33 | 0.324 | 0.397 | 0.326 | – | – | – | – | – |
| NCI-H1944 | 0.561 | 0.84 | 0.949 | 0.923 | 0.953 | 0.24 | 0.246 | 0.247 | 0.255 | 0.204 | 0.202 | 0.209 | 0.186 | – | – | – | – | – |
| NCI-H2170 | 0.242 | 0.264 | 0.293 | 0.316 | 0.269 | 0.755 | 0.674 | 0.651 | 0.665 | 0.391 | 0.365 | 0.432 | 0.419 | – | – | – | – | – |
| NCI-H2342 | – | – | – | – | – | 0.489 | 0.639 | 0.403 | 0.591 | 0.5 | 0.488 | 0.538 | 0.595 | – | – | – | – | – |
| SK-MES-1 | 0.43 | 0.472 | 0.508 | 0.491 | 0.58 | 0.828 | 0.909 | 0.964 | 0.842 | 0.676 | 0.65 | 0.716 | 0.548 | – | – | – | – | – |
| SW 900 | – | – | – | – | – | 0.58 | 0.51 | 0.337 | 0.38 | 0.491 | 0.496 | 0.682 | 0.416 | – | – | – | – | – |
